In patent publication US10864211B2, “Hydroxy isoxazole compounds useful as GPR120 agonists” (Merck Sharp & Dohme Corp., priority 2016, dated 2020):
Structures can show the parent of a compound that is named as a salt.

biological target: T1, human GPR120 (Homo sapiens, UniProt Q5NUL3); assay: Human GPR120 IP1 assay (inositol phosphate turnover); type: cell-based; settings: IP1 accumulation in CHO-K1 cells stably expressing the short form of human GPR120
T1 construct: expressed in transfected cells; host or cells: CHO-K1
T1 sequence (Q5NUL3 1-361): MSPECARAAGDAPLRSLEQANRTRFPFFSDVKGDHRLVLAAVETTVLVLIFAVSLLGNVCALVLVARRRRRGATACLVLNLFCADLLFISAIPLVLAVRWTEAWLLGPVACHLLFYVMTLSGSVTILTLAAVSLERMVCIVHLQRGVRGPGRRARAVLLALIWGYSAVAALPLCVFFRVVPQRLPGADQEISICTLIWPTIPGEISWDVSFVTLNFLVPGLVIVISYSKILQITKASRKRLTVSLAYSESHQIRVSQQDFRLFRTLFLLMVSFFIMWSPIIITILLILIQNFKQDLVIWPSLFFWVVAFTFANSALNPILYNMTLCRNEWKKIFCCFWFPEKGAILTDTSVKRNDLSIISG
From the text: The binding of small molecule agonists to the G-protein-coupled receptor GPR120 activates phospholipase C, and leads to the generation of inositol 1,4,5-trisphosphate (InsP3 or IP3). IP3 is subsequently de-phosphorylated to IP1, which accumulates in cells and is stable in the presence of lithium chloride.
In the present method, agonist-induced activation of the human and rat GPR120 receptor was monitored by measuring the accumulation of IP1 in CHO-K1 cells that were stably expressing the short form of human GPR120 (Accession #NM_001195755) or HEK293 cells stably expressing rat GPR120 (Accession #NM_001047088). Following agonist addition, GPR120 activation and subsequent accumulation of IP1 was measured using a homogeneous Time Resolved Fluorescence-based ELISA commercially available from CisBio (IP-one ELISA Kit). The IP-One ELISA was a competitive immunoassay which uses IP1 labeled with […] and a terbium cryptate-labeled anti-IP1 monoclonal antibody. […] The signal loss was then back calculated to IP1 concentration using an IP1 standard curve. Determination of IP1 concentration was a direct measure of GPR120 activation and was used to determine compound potency (EC50).
Human GPR120 stable cell-lines were generated in CHO cells. The expression plasmids were transfected using lipofectamine (Life Technologies) following manufacturer's instructions. Stable cell-lines were generated following drug selection and single cell cloning. Rat GPR120 stable cell-lines were generated in HEK cells using the Jump-In™ cell engineering platform (Life Technologies) following manufacturer's instructions. Stable cell-lines were generated following drug selection and single cell cloning.
The assay was performed in 384-well format. CHO cells stably expressing human GPR120 were plated at 20,000 cells per well in growth medium (DMEM/F12, 10% fetal calf serum). HEK293 cells stably expressing rat GPR120 were plated at […] per well in growth medium (DMEM, 10% fetal calf serum). Cell plates were then incubated 16 hours at 37 degrees in a 5% CO2 incubator. Measurement of Inositol Phosphate Turnover (IP1) was performed using the CisBio IP-One kit (Part number 62IPAPEB). After the 16 hour incubation, the growth media was removed by centrifugation using the BlueWasher (AusWasher GUI Ver. v1.0.1.8) Protocol #21-“Light Dry” and 10 μl of stimulation buffer (prepared as described in the kit) was added to each well. In a separate plate, compounds were diluted in DMSO (200-fold over the final concentration in the assay well) and 50 nl was acoustically transferred to the appropriate well in the assay cell plate. The plates were then incubated for 60 minutes at 37 degrees in a 5% CO2 incubator. 10 μl of detection buffer (also prepared as described in the IP-One kit) was added to each well and the plates were incubated at room temperature for 60 minutes in the dark. The plates were then read in a Perkin ElmerEnVision or equivalent reader able to measure FRET. Fluorescent ratio of emission at 665 and 620 nm was then converted to the IP1 concentration by back calculating from an IP1 standard curve prepared at the time of the assay. The data was normalized to % activity using a reference compound, and the EC50 values were determined using a standard 4-parameter fit.

Structure (SMILES)	EC50
CCc1ccc([C@H]2C[C@@H](Oc3ccc(-c4cc(O)no4)cn3)C2)cc1 [Example 14, 5-(6-{[cis-3-(4-ethylphenyl)-cyclobutyl]oxy}pyridin-3-yl)isoxazol-3-ol]	19 nM
Oc1cc(-c2ccc(OC3CC(c4ccc(C5CC5)cc4)C3)nc2)on1 (stereo not shown) [Example 15, 5-(6-{[3-(4-cyclo-propyl-phenyl)cyclobutyl]oxy}pyridin-3-yl)isoxazol-3-ol]	41 nM
Oc1cc(-c2cnc(O[C@H]3C[C@@H](c4ccc(-c5cnco5)cc4)C3)cn2)on1 [Example 16, 5-[5-({cis-3-[4-(1,3-oxazol-5-yl)phenyl]cyclobutyl}oxy)pyrazin-2-yl]isoxazol-3-ol]	64 nM
Oc1cc(-c2cnc(O[C@H]3C[C@@H](c4ccc(-c5cc(F)ccn5)cc4)C3)cn2)on1 [Example 17, ammonium 5-[5-({cis-3-[4-(4-fluoropyridin-2-yl)phenyl]cyclobutyl}oxy)pyrazin-2-yl]isoxazol-3-olate]	86 nM
Oc1cc(-c2cnc(O[C@H]3C[C@@H](c4ccc(-c5ccc(C(F)(F)F)nc5)cc4)C3)cn2)on1 [Example 18, 5-{5-[(cis-3-{4-[6-(trifluoromethyl)pyridin-3-yl]phenyl}cyclobutyl)oxy]pyrazin-2-yl}isoxazol-3-ol]	134 nM
Oc1cc(-c2cnc(O[C@H]3C[C@@H](c4cccc(-c5cnco5)c4)C3)cn2)on1 [Example 19, ammonium 5-[5-({cis-3-[3-(1,3-oxazol-5-yl)phenyl]-cyclobutyl}oxy)pyrazin-2-yl]isoxazol-3-olate]	75 nM
Oc1cc(-c2cnc(O[C@H]3C[C@@H](c4ccc(C5CC5)cc4)C3)cn2)on1 [Example 20, ammonium 5-(5-{[cis-3-(4-cyclopropylphenyl)cyclobutyl]oxy}pyrazin-2-yl)isoxazol-3-olate]	42 nM
Oc1cc(-c2ccc(O[C@H]3C[C@@H](c4ccnc(C(F)(F)F)c4)C3)nc2)on1 [Example 21, 5-(3-hydroxyisoxazol-5-yl)-2-({cis-3-[2-(trifluoromethyl)-pyridin-4-yl]cyclobutyl}-oxy)pyridinium chloride]	254 nM
CCOc1ccc([C@H]2C[C@@H](Oc3ccc(-c4cc(O)no4)cn3)C2)cn1 [Example 22, 2-ethoxy-5-(cis-3-{[5-(3-hydroxyisoxazol-5-yl)pyridin-2-yl]oxy}cyclobutyl)-pyridinium chloride]	92 nM
Oc1cc(-c2ccc(O[C@H]3C[C@@H](c4ccc(C(F)(F)F)cn4)C3)nc2)on1 [Example 24, 5-[6-({cis-3-[5-(trifloromethyl)pyridin-2-yl]cyclobutyl}oxy)pyridin-3-yl]isoxazol-3-ol]	19 nM
Oc1cc(-c2cnc(O[C@H]3C[C@@H](c4ccc(C(F)(F)F)cn4)C3)cn2)on1 [Example 25, 5-[5-({cis-3-[5-(trifluoromethyl)pyridin-2-yl]cyclobutyl}oxy)pyrazin-2-yl]isoxazol-3-ol]	46 nM
Oc1cc(-c2cnc(O[C@H]3C[C@@H](c4ccc(OC(F)(F)F)cn4)C3)cn2)on1 [Example 26, 5-[5-({cis-3-[5-(trifluoromethoxy)pyridin-2-yl]cyclobutyl}oxy)pyrazin-2-yl]isoxazol-3-ol]	86 nM
CCOc1cc([C@H]2C[C@H](Oc3cnc(-c4cc(O)no4)cn3)C2)ccn1 [Example 27, sodium 5-(5-{[trans-3-(2-ethoxypyridin-4-yl)cyclobutyl]oxy}pyrazin-2-yl)isoxazol-3-olate]	177 nM
Oc1cc(-c2cnc(O[C@H]3C[C@H](c4ccc(C5CC(F)(F)C5)cc4)C3)cn2)on1 [Example 29, 5-[5-({trans-3-[4-(3,3-difluorocyclobutyl)phenyl]cyclobutyl}oxy)pyrazin-2-yl]isoxazol-3-ol]	171 nM
Oc1cc(-c2cnc(O[C@H]3C[C@@H](c4ccc(C5CC(F)(F)C5)cc4)C3)cn2)on1 [Example 30, 5-[5-({cis-3-[4-(3,3-difluorocyclobutyl)phenyl]cyclobutyl}oxy)pyrazin-2-yl)isoxazol-3-ol]	155 nM
Oc1cc(-c2ccc(O[C@H]3C[C@H](c4ccnc(OC5CC5)c4)C3)nc2)on1 [Example 31, sodium 5-[6-({trans-3-[2-(cyclopropyloxy)pyridin-4-yl]cyclobutyl}oxy)pyridin-3-yl]isoxazol-3-olate]	62 nM
Oc1cc(-c2ccc(O[C@H]3C[C@@H](c4ccnc(OC5CC5)c4)C3)nc2)on1 [Example 32, 5-[6-({cis-3-[2-(cyclopropyloxy)pyridin-4-yl]cyclobutyl}oxy)pyridin-3-yl]isoxazol-3-ol]	16 nM
Oc1cc(-c2cnc(O[C@H]3C[C@H](c4ccnc(OC5CC5)c4)C3)cn2)on1 [Example 33, sodium 5-[5-({trans-3-[2-(cyclopropyloxy)pyridin-4-yl]cyclobutyl}oxy)pyrazin-2-yl]isoxazol-3-olate]	320 nM
Oc1cc(-c2cnc(O[C@H]3C[C@@H](c4ccnc(OC5CC5)c4)C3)cn2)on1 [Example 34, 5-[5-({cis-3-[2-(cyclopropyloxy)pyridin-4-yl]cyclobutyl}oxy)pyrazin-2-yl]isoxazol-3-ol]	25 nM
Oc1cc(-c2ccc(OC3CC(c4ccc(F)cc4)C3)nc2)on1 (stereo not shown) [Example 35, 5-(6-{[3-(4-fluorophenyl)cyclobutyl]oxy}pyridin-3-yl)isoxazol-3-ol trifluoroacetate]	10 nM
Oc1cc(-c2ccc(OC3CC(c4ccccc4)C3)nc2)on1 (stereo not shown) [Example 36, 5-{6-[(3-phenylcyclobutyl)oxy]pyridin-3-yl}isoxazol-3-ol trifluoroacetate]	41 nM
Oc1cc(-c2ccc(O[C@H]3C[C@@H](C4CCCCC4)C3)nc2)on1 [Example 37, 2-[(cis-3-cyclohexylcyclobutyl)oxy]-5-(3-hydroxyisoxazol-5-yl)pyridinium chloride]	161 nM
Oc1cc(-c2cnc(O[C@H]3C[C@@H](c4ccc(Cl)cc4)C3)cn2)on1 [Example 38, sodium 5-(5-{[cis-3-(4-chlorophenyl)cyclobutyl]oxy}pyrazin-2-yl)isoxazol-3-olate]	17 nM
Oc1cc(-c2cnc(O[C@H]3C[C@@H](c4cc(OC5CC5)ccc4F)C3)cn2)on1 [Example 39, 5-[5-({cis-3-[5-(cyclopropyloxy)-2-fluorophenyl]cyclobutyl}oxy)pyrazin-2-yl]isoxazol-3-ol]	48 nM
Oc1cc(-c2cnc(O[C@H]3C[C@@H](c4ccc5c(c4)OC(F)(F)O5)C3)cn2)on1 [Example 40, 5-(5-{[cis-3-(2,2-difluoro-1,3-benzodioxol-5-yl)cyclobutyl]oxy}pyrazin-2-yl)isoxazol-3-ol]	16 nM
Oc1cc(-c2cnc(O[C@H]3C[C@@H](c4cccc(OC(F)F)c4F)C3)cn2)on1 [Example 41, 5-[5-({cis-3-[3-(difluoromethoxy)-2-fluorophenyl]cyclobutyl}oxy)pyrazin-2-yl]isoxazol-3-ol]	17 nM
Oc1cc(-c2cnc(O[C@H]3C[C@@H](c4ccc5c(c4)OCCO5)C3)cn2)on1 [Example 42, ammonium 5-(5-{[cis-3-(2,3-dihydro-1,4-benzodioxin-6-yl)cyclobutyl]oxy}pyrazin-2-yl)isoxazol-3-olate]	85 nM
Oc1cc(-c2cnc(O[C@H]3C[C@@H](c4cccc5ccccc54)C3)cn2)on1 [Example 43, 5-{5-[(cis-3-naphthalen-1-ylcyclobutyl)oxy]pyrazin-2-yl}isoxazol-3-ol]	130 nM
